Values after ≈ are worked out from the molar mass of the structure shown.
Legend:
in vivo [1] = details: mouse, sc, 150 mg/kg
in vivo [2] = details: Wistar, rat, iv, 10 mg/kg
physchem [3] = details: n-octanol/phosphate buffer, pH 7.4
physchem [4] = details: buffer, pH 4
physchem [5] = details: buffer, pH 7
physchem [6] = details: buffer, pH 9
in vitro [7] = details: rat, hepatocytes
in vitro [8] = details: rat, liver microsomes
in vitro [9] = details: human, hepatocytes
in vitro [10] = details: human, liver microsomes
in vitro [11] = details: rat, plasma
physchem [12] = details: 5% mannitol/water, pH 8.2
Escherichia coli [13] = experiment: microbe, parasite or virus in culture; details: ATCC 25922
Klebsiella pneumoniae [14] = experiment: microbe, parasite or virus in culture; details: T6474
Pseudomonas aeruginosa [15] = experiment: microbe, parasite or virus in culture; details: ATCC 27853
Citrobacter freundii = experiment: microbe, parasite or virus in culture
Klebsiella aerogenes = experiment: microbe, parasite or virus in culture
Enterobacter cloacae = experiment: microbe, parasite or virus in culture
Escherichia coli [16] = experiment: microbe, parasite or virus in culture
Klebsiella oxytoca = experiment: microbe, parasite or virus in culture
Klebsiella pneumoniae [17] = experiment: microbe, parasite or virus in culture
Morganella morganii = experiment: microbe, parasite or virus in culture
Proteus mirabilis = experiment: microbe, parasite or virus in culture
Serratia marcescens = experiment: microbe, parasite or virus in culture
Acinetobacter baumannii = experiment: microbe, parasite or virus in culture
Burkholderia cepacia = experiment: microbe, parasite or virus in culture
Haemophilus influenzae = experiment: microbe, parasite or virus in culture
Moraxella catarrhalis = experiment: microbe, parasite or virus in culture
Pseudomonas aeruginosa [18] = experiment: microbe, parasite or virus in culture
[19] = system: Stenotrophomonas maltophilia; experiment: microbe, parasite or virus in culture

## C[C@@](CCN1Cc2cc(C#CC#C[C@H]3C[C@@H]3[C@@H](O)CO)cn2C1=O)(C(=O)NO)S(C)(=O)=O
In vivo [1]
  AUC(0-t) at 24 h: 347 µg·h/mL
In vivo [2]
  clearance at 24 h: 3.1 mL/min/kg
Physchem [3]
  logD: 0.5
Physchem [4]
  solubility at 24 h: > 780 µg/mL
Physchem [5]
  solubility at 24 h: > 780 µg/mL
Physchem [6]
  solubility at 24 h: > 780 µg/mL
In vitro [7]
  hepatocyte CLint at 1 µM: 10.2 µL/min/1e6 cells
In vitro [8]
  microsomal CLint at 1 µM: < 10 µL/min/mg
In vitro [9]
  hepatocyte CLint at 1 µM: < 2 µL/min/1e6 cells
In vitro [10]
  microsomal CLint at 1 µM: < 10 µL/min/mg
In vitro [11]
  fraction unbound at 1 µM: 0.018
Physchem [12]
  solubility: 25000 µg/mL (≈ 53900 µM)
Escherichia coli [13]
  MIC: 0.5 µg/mL (≈ 1.08 µM)
Klebsiella pneumoniae [14]
  MIC: 1 µg/mL (≈ 2.16 µM)
Pseudomonas aeruginosa [15]
  MIC: 1 µg/mL (≈ 2.16 µM)
Citrobacter freundii
  MIC90: 1 µg/mL (≈ 2.16 µM)
Klebsiella aerogenes
  MIC90: 2 µg/mL (≈ 4.31 µM)
Enterobacter cloacae
  MIC90: 4 µg/mL (≈ 8.63 µM)
Escherichia coli [16]
  MIC90: 2 µg/mL (≈ 4.31 µM)
Klebsiella oxytoca
  MIC90: 4 µg/mL (≈ 8.63 µM)
Klebsiella pneumoniae [17]
  MIC90: 4 µg/mL (≈ 8.63 µM)
Morganella morganii
  MIC90: 1 µg/mL (≈ 2.16 µM)
Proteus mirabilis
  MIC90: 1 µg/mL (≈ 2.16 µM)
Serratia marcescens
  MIC90: 0.5 µg/mL (≈ 1.08 µM)
Acinetobacter baumannii
  MIC90: > 16 µg/mL
Burkholderia cepacia
  MIC90: 8 µg/mL (≈ 17.3 µM)
Haemophilus influenzae
  MIC90: ≤ 0.03 µg/mL
Moraxella catarrhalis
  MIC90: > 16 µg/mL
Pseudomonas aeruginosa [18]
  MIC90: 2 µg/mL (≈ 4.31 µM)
[19]
  MIC90: > 16 µg/mL

— ChEMBL document CHEMBL4321867, “Optimization of LpxC Inhibitor Lead Compounds Focusing on Efficacy and Formulation for High Dose Intravenous Administration” (J Med Chem, 2020)
